Consider 2 compounds from patent publication US20160095845A1, “COMPOSITION COMPRISING (S)-(-)-BENPROPERINE FOR PREVENTING OR TREATING CANCER” (KOREA RESEARCH INSTITUTE OF BIOSCIENCE AND BIOTECHNOLOGY, priority 2014, published 2016).

For series [1], the system named is DLD-1 cells, PRL-3 over-expressed colorectal cancer cell line. Kind of series: Transwell cell migration assay. It is filed as cell-based, human. Conditions: for inhibition at 0.5 µM: DLD-1, 0.5 μM (FIG. 3b); for inhibition at 0.5 µM / inhibition at 5 µM: compared to DMSO-treated control; for inhibition at 5 µM: DLD-1, 5 μM (FIG. 3a). How it is done: (§1) To analyze inhibitory activity against the migration and invasion of (S)-(−)-benproperine cancer cells, a cell migration and invasion assay was caned out using DLD-1 cells (ATCC-CCL-221), a PRL-3 over-expressed colorectal cancer cell line, using a transwell as described below.
(§2) First, DLD-1 cells (ATCC-CCL-221) were allowed to grow to about 90% in a culturing plate containing an RPMI medium, then removed from the medium and washed with PBS. The washed cells were treated with trypsin-EDTA and cultured in a CO2 incubator at 37° C. for […] to detach the cells. Then an RPMI medium containing 10% FBS was added thereto, and the cells were collected in a Falcon tube and centrifuged to remove the medium. The thus-obtained cells were charged with an FBS-free RPMI medium and centrifuged to remove the medium, and these step were repeated twice. The thus-obtained cells were charged with an FBS-free RPMI medium and then suspended to measure the number of cells using a hemocytometer.
(§3) Thereafter, the transwell was placed on top of a 24-well plate and charged with cells of 8×10^4 cell/200 The transwell was charged with 500 μL of an FBS-free RPMI medium containing the (S)-(−)-benproperine, prepared in Example 1, through the gap, and cultured in a CO2 incubator at 37° C. for 12 hours to 16 hours. After culturing, the transwell was turned upside down on a hand towel to remove the medium, then each well of the 24-well plate was charged with 500 μL of crystal violet (5 mg/mL in 20% MeOH). The transwell was placed back on top of the 24-well plate and incubated in a CO2 incubator for 30 minutes. The stained transwell was washed with PBS and turned upside down on a hand towel to let the remaining solution infiltrate into the hand towel. A region where the cells had not moved was labeled as the top of a film by placing a cover slip on top of the film, and the cells that had not moved were wiped off with a cotton swab. A small amount of nail polish was applied to the edge of the cover slip, and a slide glass was placed on top to fix the cover slip. The thus-prepared sample was photographed using an inverted microscope (TE 300, Nikon, Japan) with a digital camera installed, and the number of migrated cells was calculated.
Subsequently, cell migration inhibition was calculated via Mathematical Formula 1 shown below.
(§4) According to the Mathematical Formula 1 above, “the number of migrated cells in sample-treated group” refers to a number of migrated cells measured after treating DLD-1 with (S)-(−)-benproperine (S-Benp) prepared in Example 1, (R)-(+)-benproperine (R-Benp) prepared in Comparative Example 1, or a mixed racemate having a 1:1 weight ratio of (S)-(−)-benproperine to (R)-(+)-benproperine, and “the number of migrated cells in control group” refers to a number of migrated cells measured after treating DLD-1 with 1% dimethyl sulfoxide (DMSO) alone, instead of benproperine.

The test system is the same in series [2]. Kind of series: Transwell cell invasion assay. It is filed as cell-based. Conditions: Homo sapiens; for inhibition at 1 µM: DLD-1, 1 μM (FIG. 5b); for inhibition at 1 µM / inhibition at 5 µM: compared to DMSO-treated control; for inhibition at 2 µM: DLD-1, 2 μM (FIG. 5b); for inhibition at 5 µM: DLD-1, 5 μM (FIG. 5a). The protocol:
as §1, §2, §3, §4

Series [3] relates to cancer cells (DLD-1, AsPc-1, B16-BL6). Kind of series: Cytotoxicity assay (WST-1). It is filed as cell-based. Conditions: 5 μM, 48 hours. How it is done:
(§5) To verify the cytotoxicity of (S)-(−)-benproperine, prepared in Example 1, DLD-1 cells (ATCC-CCL-221), a human colorectal cancer cell line, AsPc-1′ cells (ATCC-CRL-1682), a pancreatic cancer cell line, B16-BL6 cells (ATCC-CRL-6475), a melanoma cell line, and normal cells of MCF10A (ATCC-CRL-10317) were cultured in an RPM medium containing 10% fetal bovine serum (FBS) while maintaining a temperature at 37° C. and 5% CO2, and the cells were then detached from the medium using 0.05% trypsin-EDTA. Each well of a 96-well plate including the medium containing 10% FBS was inoculated with 410^3 cells, calculated with a hemocytometer, and the cells were cultured in an incubator containing 5% CO2 at 37° C.
(§6) After 24 hours, the medium of each well was replaced with a new medium containing a control group (0.1% DMSO) and 5 μM of benproperine, prepared in either of Example 1 or Comparative Example 1. The cells in the new media were then cultured in an incubator containing 5% CO2 at 37° C. for 48 hours. Each well was then charged with 10 μL of WST-1 (Roche), culturing was continued for 2 hours, and absorbance was measured at 450 nm by ELISA Reader (Bio-Rad).

In series [4] the test system is normal cells of MCF10A. Put plainly: Cytotoxicity assay (WST-1). Conditions: 5 μM, 48 hours. Type of series: cell-based. How it is done: as §5, §6
A general note: Formazan colour is commonly taken as a measure of viable cells.

The subject of series [5] is MCF10A cells. Kind of series: Transwell cell migration assay, normal cells. Type of series: cell-based. The settings on record: 10 μM (FIG. 4).
Series [6] in a line: Acute toxicity experiment of oral administration on rats. Conditions: SD, in vivo, 1000 mg/kg; rat, oral; read-out: minimum lethal oral dose (LD50). How it is done:
(§7) 6-week-old specific pathogen free SD type rats were divided into groups, where each group contains two rats. The (S)-(−)-benproperine, prepared in Example 1, was dissolved in water for injection, and orally administered to each rat once at a volume of 1000 mg/kg.

For series [7], the system named is SD type rats. The description is as above. Conditions: rat, in vivo, po, 1000 mg/kg. How it is done:
as §7

`CC(COc1ccccc1Cc1ccccc1)N1CCCCC1` (racemic) [racemate, 1-[1-(2-benzylphenoxy)propan-2-yl]piperidine, reference compound]: in series [1] (Homo sapiens), the inhibition (in general, the change of the read-out against control, counted positive when it falls) at 0.5 µM is 3% and the inhibition at 5 µM was 71%. This compound yielded an inhibition at 2 µM in series [1] (Homo sapiens, DLD-1, 2 μM (FIG. 3b)) of 53%. In series [2], this compound returned an inhibition at 1 µM of 21%, an inhibition at 2 µM of 36% and an inhibition at 5 µM of 73%.

Regarding `C[C@@H](COc1ccccc1Cc1ccccc1)N1CCCCC1` [(S)-(−)-benproperine], the cytotoxicity entry in series [3] is “did not exhibit the cytotoxicity”. Also, in series [4], the cytotoxicity result is on record as “did not exhibit the cytotoxicity”. Also, the “inhibitory activity against cell migration relative to the racemate” value in series [1] (DLD-1, 52% at 1 μM vs racemate 53% at 2 μM) is recorded as “twice as much inhibitory activity against the cell migration as the racemate”. For the same compound, in series [1] (Homo sapiens), the inhibition at 0.5 µM is 32% and the inhibition at 5 µM came to 89%. The compound also displayed an inhibition at 1 µM in series [1] (Homo sapiens, DLD-1, 1 μM (FIG. 3b)) of 52%. Moreover, the “inhibition of migration of normal cells” value in series [5] is “did not inhibit the migration”. Besides, in series [2], the inhibition at 1 µM was found to be 36%, 2 µM produced 57% inhibition and testing at 5 µM gave an inhibition of 90%. Further, in series [6], the highest tested oral dose (no deaths) is 1000 mg/kg. Further, in series [7], the animal death result was “none died”; the clinical symptoms entry is on record as “showed noteworthy clinical symptoms”; the “toxicity in weight fluctuation, hematological and blood biochemical examinations, post-mortem reports” value was “nor showed any toxicity”.
